Article PMC12530846, “Development of Novel Anticancer Pyrazolopyrimidinones Targeting Glioblastoma” (Chemmedchem, 2025)
pIC50: −log10 of the molar value. Where two headings read alike, the source gives them in different places.

Experiments:
U‐251 MG cells [1] = test: MTT cell viability assay, U‐251 MG glioblastoma cells, 5 days treatment; format: cell-based, human; details: 5 days treatment, 100–0 µM
Protocol: (§1) Dose–response curves for each of the pyrazolo[1,5‐α]pyrimidinones were performed to determine the cytotoxic effect of the compounds on a cancerous, U‐251 MG cell line and a noncancerous, HEK293 cell line. The synthesized pyrazolopyrimidinones were dissolved in DMSO (Merck) to obtain a stock solution which was stored at −20 °C. […] U‐251 MG and HEK293 cells were seeded at a density of 2 x 10^3 cells per well (100 μL) in a 96‐well plate (Sarstedt) and incubated for 24 h prior to each treatment to allow for cell adhesion. The stock solution was diluted in media to working concentrations of 100, 75, 50, 25, 10, 5, and 0.1 μM. Media on the seeded cells was then replaced with the working concentrations of the compound or the controls in a 96‐well plate (100 μL). The treated plate was incubated at 37 °C in the humidified incubator for 5 days. Cell viability was assessed after 5 days using the MTT assay. Dose–response curves were then plotted relative to the positive control whereby cells were treated 20% DMSO and a negative control whereby cells were maintained in fresh DMEM.
(§2) To determine the extent of the cytotoxic effect of the pyrazolopyrimidinone on each cell line, the cell viability at each working concentration was determined via the MTT assay (Merck). The working solution of MTT used was 5 mg MTT per 1 ml of PBS diluted in 9 ml of media. After 5 days of incubation, the treatment was removed from each of the wells and replaced with 100 μL of fresh MTT solution. The plate was then incubated for 3 h at 37 °C in a humidified incubator to allow the reduction of the yellow tetrazolium salt to purple formazan crystals. After the incubation, the MTT solution was removed from the wells and replaced with 100 μL of DMSO for 15 min to dissolve the formazan crystals. The absorbance was read at 570 nm using a spectrophotometric microplate reader (Thermo Fisher Scientific).
(§3) Each of the experiments was performed at least three independent times, with a minimum of six technical replicates per experiment. Statistical analysis was carried out using GraphPad Prism version 8.0.0 (GraphPad Softwares, Inc.). Curve fitting and the IC50 values were obtained through the dose–response curves using nonlinear regression. To determine if the dose–response curves were statistically distinct and not overlapping, extra sum‐of‐squares F‐test was used, and a p‐value was obtained. The effect of compound treatment on both cell lines was statistically compared via two‐way ANOVA with Tukey's post‐test. The CytExpert (Beckman Coulter) software was used for flow cytometry analysis. Graphs represent the % dead cells whereby the total number of dead cells was divided by the total cell population. The statistical significance of the flow cytometry results was determined via one‐way analysis of variance (ANOVA) with Dunnett's T3 multiple comparison post‐test. Data is presented as the mean ± standard error of mean (SEM). Summary of results from statistical analysis reports p‐values as follows: ≥0.05 (ns), 0.01–0.05 (*), 0.001–0.01 (**), […], and <0.0001(****).

HEK293 cells = test: MTT cell viability assay, noncancerous HEK293 cells, 5 days treatment; format: cell-based, human; details: for pIC50: 5 days treatment, 100–0 µM
Protocol: as §1, §2, §3

[2] = system: U‐251 MG and HEK293 cells; test: Statistical comparison of dose–response in U‐251 MG versus HEK293 (selectivity, HIT criteria); format: cell-based, human; details: for Selectivity for cancer cells with IC50 < 50 [µM]‐Yes/No: HEK293 IC50 higher than U‐251 MG IC50, U‐251 MG IC50 below 50 µM; for All criteria met -Yes/No: HIT criteria and statistical testing, Table S1
U‐251 MG cells [3] = system: U‐251 MG cells; set-up: method as in He and colleagues (2021); details: after 2 days of treatment; ref He and colleagues (2021); read-out: cytotoxicity against U‐251 MG cells (IC50); cited from earlier work
U‐251 MG cells [4] = test: Propidium iodide (PI) flow cytometry, cell membrane permeabilization; format: cell-based, human; details: 5 days; for PI: significance of cell death, Neg Ctrl v HNT: highest non-toxic concentration; for PI: significance of cell death, Neg Ctrl v 50 µM: highest toxic concentration 50 µM
Protocol: Propidium iodide (PI) is a DNA staining, cell membrane impermeable dye which was used to assess cell death via loss of membrane integrity and is used to indicate necrotic or late apoptotic cells. Stock solutions of PI dye (Merck, Ireland) were prepared at 10 μg/mL in PBS and stored at −20 °C. U‐251 MG cells were seeded in 96‐well plates at a seeding density of 2 x 10^3 cells per well (100 μL), as previously stated. […] Subsequently, the compound was collected in 15 ml falcon tubes. Cells were washed with PBS (100 μL), and the PBS was collected in corresponding tubes to ensure all cells are collected. The cells were collected using 0.25% trypsin‐EDTA (50 μL) with a 6‐min incubation and media neutralization (100 μL). Each tube was centrifuged at 1200rpm for 5 min to obtain a pellet. The supernatant was removed, and the pellet was resuspended in PBS and transferred to an Eppendorf tube. Ten microliters of PI stain (2.5 μg/ml) was added to the Eppendorf tubes, and the tubes were incubated for a period of 15 min. Cells were also treated using controls whereby the positive control used was DMEM and 20% DMSO and the negative control used was fresh media. The cells were then analyzed using flow cytometry (Beckmann Coulter, CytExpert version 2.4.0.28). Fluorescence was measured using the FL2 channel. PI was detected in the red channel which is R‐phycoerythrin (PE‐Cy5). PE was used in combination with fluorescein isothiocyanate (FITC) and is excited at a wavelength of 488 nm.
as §3

U‐251 MG cells [5] = test: JC‐1 flow cytometry, mitochondrial membrane depolarization / apoptosis; format: cell-based, human; details: U‐251 MG, 5 days; for JC-1: significance of cell death, Neg Ctrl v HNT: highest non-toxic concentration; for JC-1: significance of cell death, Neg Ctrl v 50 µM: highest toxic concentration 50 µM
Protocol: JC‐1 dye forms aggregates in healthy mitochondria which changes the fluorescent property of the dye. […] Stock solutions of JC‐1 dye (Merck) were prepared at 1 mg/mL in DMSO and stored at −20 °C. U‐251 MG cells were seeded in 6‐well plates (Sarstedt) at a seeding density of 2 x 10^4 cells per well (1000μL) after which cells were treated with drug concentrations (highest toxic, IC50, nontoxic). After 5 days incubation, the compound and wash step with PBS was collected in falcon tubes. The cells were then harvested by trypsinization (500 μL), incubated for a period of 6 min, neutralized with media (1000 μL), and pelleted at 1200rpm for 5 min. A JC‐1 working solution of 2 μg/mL was made up in DMEM and was light protected. The cell pellet was resuspended and stained with 2 μg/mL JC‐1 dye and incubated and protected from the light for a period of 10 min. Cells were then centrifuged at 1200rpm for 5 min. The supernatant was removed, and cells were washed with 1 mL of sterile PBS. This was repeated twice. […] Cells were also treated using controls whereby the positive control used was DMEM and 20% DMSO and the negative control used was fresh media. The cells were then analyzed using flow cytometry (Beckmann Coulter, CytExpert version 2.4.0.28). Fluorescence was measured using FL1 (FITC) (530 nm) and FL2 (PE) (595 nm) channels with emission.
as §3

Compound	pIC50 (U‐251 MG cells [1]; Homo sapiens, U-251, 120 h)	pIC50 (HEK293 cells; Homo sapiens, HEK293, 120 h)	Selectivity for cancer cells with IC50 < 50 [µM]‐Yes/No [2]	All criteria met -Yes/No [2]	pIC50 (U‐251 MG cells [3])	pIC50 (U‐251 MG cells [1])	cell membrane permeabilization‐dependent cell death (PI), in words (U‐251 MG cells [4])	PI: significance of cell death, Neg Ctrl v HNT (U‐251 MG cells [4])	PI: significance of cell death, Neg Ctrl v 50 µM (U‐251 MG cells [4])	JC-1: significance of cell death, Neg Ctrl v HNT (U‐251 MG cells [5])	JC-1: significance of cell death, Neg Ctrl v 50 µM (U‐251 MG cells [5])	pIC50 (HEK293 cells)	cytotoxicity / biological response in HEK293, in words (HEK293 cells; 5 days, up to 100 µM, threshold 50 µM)
O=c1cc(-c2ccccc2)[nH]c2cc(-c3ccccc3)nn12 [Compound 15]	4.70	4.80	No	No	4.11								
O=c1cc(-c2cc(C(F)(F)F)cc(C(F)(F)F)c2)[nH]c2cc(-c3cccc(Br)c3)nn12 [Compound 21, 5‐(3,5‐Bis(trifluoromethyl)phenyl)‐2‐(3‐bromophenyl)pyrazolo[1,5‐α]pyrimidin‐7(4¬H)‐one]	6.15	4.72	Yes	Yes		6.15	significant cell membrane permeabilization‐dependent cell death	ns (≥0.05 (ns))	**** (<0.0001(****))	*** (0.001 to 0.01(***))	*** (0.001 to 0.01(***))		
O=c1cc(-c2cc(C(F)(F)F)cc(C(F)(F)F)c2)[nH]c2cc(-c3ccc(C(F)(F)F)cc3)nn12 [Compound 9]	4.57	< 4.30	Yes	Yes		4.56	significant cell membrane permeabilization‐dependent cell death	ns (≥0.05 (ns))	**** (<0.0001(****))	ns (≥0.05 (ns))	** (0.001 to 0.01 (**))	4.26	did not elicit any biological response
O=c1cc(-c2cc(C(F)(F)F)cc(C(F)(F)F)c2)[nH]c2cc(-c3ccccc3Br)nn12 [Compound 22]	5.56	4.17	Yes	Yes		5.55	significant cell membrane permeabilization‐dependent cell death		**** (<0.0001(****))	ns (≥0.05 (ns))	* (0.01 to 0.05 (*))		
